Reference: patent US10543212B2, “Substituted amines for treating cardiac diseases” (Cardurion Pharmaceuticals, LLC, priority 2017, dated 2020)

What follows are molecules tested against T1, Full-length, GST-tagged, human CaMKIIδ (Homo sapiens, UniProt Q13557) (assay: CaMKIIδ binding assay (TR-FRET with BODIPY-labeled probe ligand)). Details: CaMKIIδ binding assay, results of Table 2.
T1 construct: Full-Length, Glutathione-S-Transferase(GST)-Tagged, Human CaMKIIδ was purchased from Carna Biosciences; purchased Carna Biosciences 02-111
T1 sequence (Q13557 1-478 isoform Q13557-12): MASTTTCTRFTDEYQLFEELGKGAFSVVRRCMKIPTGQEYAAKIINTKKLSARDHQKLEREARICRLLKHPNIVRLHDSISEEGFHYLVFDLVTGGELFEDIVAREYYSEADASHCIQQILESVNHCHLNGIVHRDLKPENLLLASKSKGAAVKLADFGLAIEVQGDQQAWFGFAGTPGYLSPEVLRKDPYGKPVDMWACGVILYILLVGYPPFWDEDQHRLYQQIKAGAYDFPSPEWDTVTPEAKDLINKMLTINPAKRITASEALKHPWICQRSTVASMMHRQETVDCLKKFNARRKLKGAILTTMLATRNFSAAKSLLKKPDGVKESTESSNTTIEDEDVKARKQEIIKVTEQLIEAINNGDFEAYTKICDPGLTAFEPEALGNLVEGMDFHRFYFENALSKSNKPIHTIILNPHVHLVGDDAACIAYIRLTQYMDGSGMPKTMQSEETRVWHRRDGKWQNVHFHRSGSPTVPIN
In short: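 TR-FRET probe-displacement binding: 0.5 nM GST-CaMKIIδ with 10 μg/mL calmodulin, 1 mM CaCl2, 0.21 nM Tb-anti-GST Ab and 300 nM BODIPY probe in HEPES pH 7.6 buffer. Eight-point 4-fold dilutions, 1 hr at room temperature. IC50 from logistic fit; 100% inhibition defined by 3 μM parent compound.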
With `C[C@@H](Cn1cnnn1)Oc1cc(-c2cnc(Nc3cn(C4CCNCC4)nc3C(F)(F)F)nc2)ccc1Cl` [Example 483, (S)-5-(3-((1-(1H-tetrazol-1-yl)propan-2-yl)oxy)-4-chlorophenyl)-N-(1-(piperidin-4-yl)-3-(trifluoromethyl)-1H-pyrazol-4-yl)pyrimidin-2-amine] the IC50 was less than 10 nM. Molecule `C[C@@H](Cn1cnnn1)Oc1cc(-c2cnc(Nc3cn(C4CCN(CC(F)F)CC4)nc3C(F)(F)F)nc2)ccc1Cl` [Example 485, (S)-5-(3-((1-(1H-tetrazol-1-yl)propan-2-yl)oxy)-4-chlorophenyl)-N-(1-(1-(2,2-difluoroethyl)piperidin-4-yl)-3-(trifluoromethyl)-1H-pyrazol-4-yl)pyrimidin-2-amine] has an IC50 of 10 to 100 nM. `C[C@@H](Cn1cnnn1)Oc1cc(-c2cnc(Nc3cn(C4CCN(CC(F)(F)F)CC4)nc3C(F)(F)F)nc2)ccc1Cl` [Example 486, (S)-5-(3-((1-(1H-tetrazol-1-yl)propan-2-yl)oxy)-4-chlorophenyl)-N-(1-(1-(2,2,2-trifluoroethyl)piperidin-4-yl)-3-(trifluoromethyl)-1H-pyrazol-4-yl)pyrimidin-2-amine] gave an IC50 of 10 to 100 nM. `C[C@@H](Cn1cnnn1)Oc1cc(-c2cnc(Nc3cn(C4CCN(C)CC4)nc3C(F)(F)F)nc2)ccc1Cl` [Example 487, (S)-5-(3-((1-(1H-tetrazol-1-yl)propan-2-yl)oxy)-4-chlorophenyl)-N-(1-(1-methylpiperidin-4-yl)-3-(trifluoromethyl)-1H-pyrazol-4-yl)pyrimidin-2-amine] was tested, and the IC50 was less than 10 nM. Work on `CC(=O)N1CCC(n2cc(Nc3ncc(-c4ccc(Cl)c(O[C@@H](C)Cn5cnnn5)c4)cn3)c(C(F)(F)F)n2)CC1` [Example 488, (S)-1-(4-(4-((5-(3-((1-(1H-tetrazol-1-yl)propan-2-yl)oxy)-4-chlorophenyl)pyrimidin-2-yl)amino)-3-(trifluoromethyl)-1H-pyrazol-1-yl)piperidin-1-yl)ethan-1-one] yielded an IC50 of less than 10 nM. `C[C@@H](Cn1cnnn1)Oc1cc(-c2cnc(Nc3cn(C4CCN(CC5COC5)CC4)nc3C(F)(F)F)nc2)ccc1Cl` [Example 489, (S)-5-(3-((1-(1H-tetrazol-1-yl)propan-2-yl)oxy)-4-chlorophenyl)-N-(1-(1-(oxetan-3-ylmethyl)piperidin-4-yl)-3-(trifluoromethyl)-1H-pyrazol-4-yl)pyrimidin-2-amine] showed an IC50 of less than 10 nM. `COc1cc2c(cc1Nc1ncc(-c3ccc(Cl)c(O[C@@H](C)Cn4cnnn4)c3)cn1)CCN(CC(F)(F)F)C2` [Example 490, (S)-N-(5-(3-((1-(1H-tetrazol-1-yl)propan-2-yl)oxy)-4-chlorophenyl)pyrimidin-2-yl)-7-methoxy-2-(2,2,2-trifluoroethyl)-1,2,3,4-tetrahydroisoquinolin-6-amine] was tested, and the IC50 was 10 to 100 nM. For `Cc1ccc(N2CCC(N3CCOCC3)CC2)cc1Nc1ncc(-c2ccc(Cl)c(O[C@@H](C)Cn3cnnn3)c2)cn1` [Example 491], the IC50 was less than 10 nM. Molecule `COCCN1CCc2cc(Nc3ncc(-c4ccc(Cl)c(O[C@@H](C)Cn5cnnn5)c4)cn3)c(OC)cc2C1` [Example 492, (S)-N-(5-(3-((1-(1H-tetrazol-1-yl)propan-2-yl)oxy)-4-chlorophenyl)pyrimidin-2-yl)-7-methoxy-2-(2-methoxyethyl)-1,2,3,4-tetrahydroisoquinolin-6-amine] has an IC50 of less than 10 nM. With `COc1cc(C2CCCN(C3COC3)C2)ccc1Nc1ncc(-c2ccc(C#N)c(O[C@@H](C)Cn3cnnn3)c2)cn1` (stereo partly drawn) [Example 493, 2-(((S)-1-(1H-tetrazol-1-yl)propan-2-yl)oxy)-4-(2-((2-methoxy-4-(1-(oxetan-3-yl)piperidin-3-yl)phenyl)amino)pyrimidin-5-yl)benzonitrile] the IC50 was less than 10 nM. Work on `COc1cc(C2CCCN(C3COC3)C2)ccc1Nc1ncc(-c2ccc(Cl)c(O[C@@H](C)Cn3cnnn3)c2)cn1` (stereo partly drawn) [Example 494, 5-(3-(((S)-1-(1H-tetrazol-1-yl)propan-2-yl)oxy)-4-chlorophenyl)-N-(2-methoxy-4-(1-(oxetan-3-yl)piperidin-3-yl)phenyl)pyrimidin-2-amine] yielded an IC50 of less than 10 nM.
